Measured values: EP4818168A1, “FUSED RING COMPOUND, PHARMACEUTICAL COMPOSITION THEREOF AND USE THEREOF” (priority 2023, dated 2025)
Read-outs that look alike come from different tables or passages of the source.

Assays:
[1] = target: T1, AURKA (Homo sapiens, UniProt O14965); type: cell-based; settings: Jurkat cells, 24 h, Table 2
T1 construct: endogenous in cells; host or cells: Jurkat cells
T1 sequence (O14965 1-403): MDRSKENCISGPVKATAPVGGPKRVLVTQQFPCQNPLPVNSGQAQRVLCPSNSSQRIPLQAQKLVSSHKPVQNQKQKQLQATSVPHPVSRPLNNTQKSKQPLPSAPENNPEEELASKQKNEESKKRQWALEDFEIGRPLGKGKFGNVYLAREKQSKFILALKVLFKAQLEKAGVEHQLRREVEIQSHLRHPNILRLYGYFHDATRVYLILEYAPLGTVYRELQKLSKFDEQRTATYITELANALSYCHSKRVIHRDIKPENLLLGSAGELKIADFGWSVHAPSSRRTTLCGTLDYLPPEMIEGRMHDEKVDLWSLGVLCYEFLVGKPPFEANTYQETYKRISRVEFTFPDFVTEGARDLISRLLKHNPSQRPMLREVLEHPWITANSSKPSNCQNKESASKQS
Description: WB is a classical biochemical experimental method used to detect the abundance of a target protein in a sample of cells or biological tissue. It relies on specific antigen-antibody binding to detect protein signals from the sample processed by gel electrophoresis: the protein specifically binds to a primary antibody at an epitope; the primary antibody is then conjugated with a secondary antibody to amplify the signal cascade; the signal is read out by chemiluminescent or fluorescent detection. The intracellular protein content is ultimately characterized by the intensity of the optical signals. […] The DC50 value can be calculated by curve fitting of the protein WB exposure signals.
The experimental procedure is as follows: • 1. Seed Jurkat cells into a 12-well plate at 1×10^6 cells/500 µL/well. • 2. Mix the culture medium with the compound to a concentration that is twice the desired final concentration. […] Transfer the cell suspension to a centrifuge tube. Rinse the 12-well plate with PBS and then transfer the PBS from the plate to the same centrifuge tube. Centrifuge at 3000 rpm for 5 min at room temperature. Aspirate the supernatant using a vacuum pump. […] Lyse on ice for 20 min. • 4. Centrifuge the lysed sample at 13000 rpm for 20 min at 4°C. Mix the supernatant with 5× protein loading buffer. Boil at 100°C for 5 min and then cool. Store the denatured protein sample at -20°C. • 5. […] Run electrophoresis at 80 V for 20 min, and then at 120 V constant voltage for 60 min. • 6. Transfer the protein onto a nitrocellulose membrane in an ice bath at 250 mA constant current for 90 min. • 7. […] Incubate with a primary antibody overnight at 4°C. • 9. […] Incubate with a secondary antibody for 1-2 h at room temperature. • 10. […] Expose and image the membrane using a LICOR Odyssey DLx imager.

[2] = test system: H82 cells; assay: cells; type: cell-based
Experimental: CellTiter-Glo (CTG) is a rapid cell viability test method based on ATP detection. […] Adenosine triphosphate (ATP) participates in various enzymatic reactions in organisms and is an indicator of living cell metabolism. Its content directly reflects the number of living cells and cell status. During the experiment, equal volume of CTG reagent is added to the cultured cells to measure the luminescence value. The chemiluminescent signal value is proportional to the amount of ATP, thus reflecting the number of viable cells. Therefore, cell viability can be obtained by detecting the ATP content. Compounds that affect cell viability will inhibit cell viability in a concentration-dependent manner, allowing a curve to be fitted to obtain the IC50 value.
The experimental procedure is as follows: • 11. Place the cell suspension in a 15 mL centrifuge tube, centrifuge at 1000 rpm for 5 min at room temperature, discard the supernatant, and collect the cell pellet. • 12. Resuspend the cell pellet with preheated complete cell culture medium (RPMI1640+10%FBS+1%PS), and use a Countess® automated cell counter to detect cell viability and density. […] Transfer the compound solution to a 96-well plate seeded with cells (final concentration of DMSO 0.1%), and place in a cell incubator at 37°C, 5% CO2 for 6 days. • 15. […] Protect from light during the whole process. Perform optical signal readings using a SpectraMax i3x reader. • 16. Data analysis: Remaining activity (%) = 100% * (1 - ((LumDMSO - Lummedium) - Lumsample) / (LumDMSO - LumPBS/medium)). Use GraphPad Prism 9.0 software to draw an S-shaped dose-survival rate curve and calculate the IC50 value using a nonlinear regression model.

[3] = Homo sapiens, NCI-H82, read-out: IC50 in H82 Cells
[4] = Homo sapiens, NCI-H82, H82 cells, 4000 cells/well, CellTiter-Glo, read-out: IC50 in H82 Cells

Row | Compound | Percentage of AURKA Degradation Induced by 100 nM Compound in Jurkat Cells [1] | Percentage of AURKA Degradation Induced by 1 µM Compound in Jurkat Cells [1] | IC50 [2, 3] [nM] | IC50 ([2]; read-out: IC50 in H82 Cells, H82 cells, 4000 cells/well, CellTiter-Glo) [nM] | IC50 [2, 4] [nM]
1 | O=C1CCN(c2ccc(N3CCC4(CC3)CC(N3CCN(c5ccc(Nc6ncc7c(n6)-c6ccc(Cl)cc6C(c6c(F)cccc6F)=NC7)cc5)CC3)CO4)nc2)C(=O)N1 (racemic) [Compound A340] | +++ (Degradation > 70%) | +++ (Degradation > 70%) | < 1000 | – | –
2 | O=C1CCN(c2ccc(N3CCOC4(CC(N5CCN(C67CC(Nc8ncc9c(n8)-c8ccc(Cl)cc8C(c8c(F)cccc8F)=NC9)(C6)C7)C(=O)C5)C4)C3)nc2)C(=O)N1 (single isomer, unassigned) [Compound A348] | +++ (Degradation > 70%) | ++ (30% < Degradation ≤ 70%) | < 1000 | – | –
3 | O=C1CCN(c2ccc(N3CCOC4(CC(N5CCN(C67CC(Nc8ncc9c(n8)-c8ccc(Cl)cc8C(c8c(F)cccc8F)=NC9)(C6)C7)C(=O)C5)C4)C3)nc2)C(=O)N1 (single isomer, unassigned) [Compound A349] | ++ (30% < Degradation ≤ 70%) | ++ (30% < Degradation ≤ 70%) | – | < 1000 | –
4 | O=C1CCN(c2ccc(N3CCC4(CC3)CC(NC(=O)c3ccc(Nc5ncc6c(n5)-c5ccc(Cl)cc5C(c5c(F)cccc5F)=NC6)cc3)C4)cc2F)C(=O)N1 [Compound A96] | ++ (30% < Degradation ≤ 70%) | +++ (Degradation > 70%) | – | – | < 1000
5 | O=C1CCN(c2ccc(N3CCN(CCC#Cc4cccc(Nc5ncc6c(n5)-c5ccc(Cl)cc5C(c5c(F)cccc5F)=NC6)c4)CC3)cc2)C(=O)N1 [Compound A97] | + (Degradation ≤ 30%) | + (Degradation ≤ 30%) | – | – | < 1000
6 | O=C1CCN(c2cccc(N3CCN(CC#Cc4cccc(Nc5ncc6c(n5)-c5ccc(Cl)cc5C(c5c(F)cccc5F)=NC6)c4)CC3)c2)C(=O)N1 [Compound A98] | – | – | < 1000 | – | –
7 | O=C1CCN(c2ccc(N3CCN(CC#Cc4cccc(Nc5ncc6c(n5)-c5ccc(Cl)cc5C(c5c(F)cccc5F)=NC6)c4)CC3)cc2)C(=O)N1 [Compound A99] | ++ (30% < Degradation ≤ 70%) | + (Degradation ≤ 30%) | – | – | < 1000
8 | O=C1CCN(c2cccc(N3CCN(CCC#Cc4cccc(Nc5ncc6c(n5)-c5ccc(Cl)cc5C(c5c(F)cccc5F)=NC6)c4)CC3)c2)C(=O)N1 [Compound A100] | ++ (30% < Degradation ≤ 70%) | ++ (30% < Degradation ≤ 70%) | – | – | < 1000
9 | O=C1CCN(c2cccc(C#CCN3CCn4c(cnc4-c4ccc(Nc5ncc6c(n5)-c5ccc(Cl)cc5C(c5c(F)cccc5F)=NC6)cc4)C3)c2)C(=O)N1 [Compound A145] | – | – | – | – | < 1000
10 | O=C1CCN(c2cncc(N3CCN(C4CN(c5cccc(Nc6ncc7c(n6)-c6ccc(Cl)cc6C(c6c(F)cccc6F)=NC7)c5)C4)CC3)c2C(F)F)C(=O)N1 [Compound A193] | + (Degradation ≤ 30%) | + (Degradation ≤ 30%) | – | – | –
11 | O=C1CCN(c2cnc(N3CC(N4CCN(c5ccc(Nc6ncc7c(n6)-c6ccc(Cl)cc6C(c6c(F)cccc6F)=NC7)cc5)C(=O)C4)C3)s2)C(=O)N1 [Compound A201] | ++ (30% < Degradation ≤ 70%) | ++ (30% < Degradation ≤ 70%) | – | – | –
12 | O=C1CCN(c2ccc(N3CC4(C3)CN(C3CN(c5ccc(Nc6ncc7c(n6)-c6ccc(Cl)cc6C(c6c(F)cccc6F)=NC7)cc5)C3)C4)nc2)C(=O)N1 [Compound A204] | +++ (Degradation > 70%) | ++ (30% < Degradation ≤ 70%) | – | – | –
13 | O=C1CCN(c2cncc(N3CCC(N4CC5(CN(c6cccc(Nc7ncc8c(n7)-c7ccc(Cl)cc7C(c7c(F)cccc7F)=NC8)c6)C5)C4)CC3)c2)C(=O)N1 [Compound A241] | +++ (Degradation > 70%) | ++ (30% < Degradation ≤ 70%) | – | – | –
14 | O=C1CCN(c2ccc(N3CCN(CC4CN([C@H]5CC[C@H](Nc6ncc7c(n6)-c6ccc(Cl)cc6C(c6c(F)cccc6F)=NC7)CC5)C4)CC3)nc2)C(=O)N1 [Compound A246] | + (Degradation ≤ 30%) | ++ (30% < Degradation ≤ 70%) | – | – | –
15 | O=C1CCN(c2ccc(N3CCN(CC4CN([C@H]5CC[C@@H](Nc6ncc7c(n6)-c6ccc(Cl)cc6C(c6c(F)cccc6F)=NC7)CC5)C4)CC3)nc2)C(=O)N1 [Compound A247] | + (Degradation ≤ 30%) | + (Degradation ≤ 30%) | – | – | –
16 | CN(C)CCOc1ccc2c(c1)C(c1c(F)cccc1F)=NCc1cnc(Nc3ccc(N4CC(CN5CCN(c6ccc(N7CCC(=O)NC7=O)cn6)CC5)C4)cc3)nc1-2 [Compound A260] | ++ (30% < Degradation ≤ 70%) | ++ (30% < Degradation ≤ 70%) | – | – | –
17 | CP(C)(=O)c1ccc2c(c1)C(c1c(F)cccc1F)=NCc1cnc(Nc3ccc(N4CCN(C5CCN(c6ccc(N7CCC(=O)NC7=O)cn6)CC5)CC4)cc3)nc1-2 [Compound A266] | ++ (30% < Degradation ≤ 70%) | ++ (30% < Degradation ≤ 70%) | – | – | –
18 | O=C1CCN(c2ccc(N3CCC(F)(CN4CCN(C56CC(Nc7ncc8c(n7)-c7ccc(Cl)cc7C(c7nccs7)=NC8)(C5)C6)C(=O)C4)CC3)nc2)C(=O)N1 [Compound A278] | ++ (30% < Degradation ≤ 70%) | +++ (Degradation > 70%) | – | – | –
19 | COc1cc(Nc2ncc3c(n2)-c2ccc(Cl)cc2C(c2c(F)cccc2F)=NC3)ccc1N1CC(F)(CN2CCN(c3ccc(N4CCC(=O)NC4=O)cn3)CC2)C1 [Compound A289] | +++ (Degradation > 70%) | +++ (Degradation > 70%) | – | – | –
20 | O=C1CCN(c2ccc(N3CCC(N4CCN(c5ccc(Nc6ncc7c(n6)-c6ccc(Cl)cc6C(c6c(F)cccc6F)=NC7)cc5)CC4=O)CC3)nc2)C(=O)N1 [Compound A295] | +++ (Degradation > 70%) | ++ (30% < Degradation ≤ 70%) | – | – | –
21 | O=C1CCN(c2ccc(N3CCC(N4CCN(c5ccc(Nc6ncc7c(n6)-c6ccc(Cl)cc6C(C6CC6)=NC7)cc5)C(=O)C4)CC3)nc2)C(=O)N1 [Compound A328] | ++ (30% < Degradation ≤ 70%) | ++ (30% < Degradation ≤ 70%) | – | – | –
